Results published in patent US4401666A (priority 1982, dated 1983).

How the values were obtained:
[1] = bovine, in vivo
[2] = tested on: udder of normal, lactating cows; details: bovine, in vivo
Yeast Group = assay: Broth dilution growth inhibition (MIC), isolates from mastitic cows; assay type: cell-based; details: 37° C., 18 h, 5 isolates
[3] = tested on: udder of healthy, lactating cow; details: bovine, in vivo
S. aureus = assay: MIC in sterile, homogenized, skim milk; assay type: cell-based, Staphylococcus aureus; details: 37° C., 4 h
Protocol: (§1) Cultures of E. coli and S. aureus were isolated from mammary glands of cows with mastitis. Cultures were streaked on blood agar plates and incubated for 24 hours at 37° C. Colonies from these plates were inoculated into nutrient broth tubes and incubated at 37° C. overnight. One-tenth milliliter aliquots of these cultures were inoculated into 10 milliliter tubes of sterile, homogenized, skim milk containing various concentrations of zinc pyridine-2-thione-N-oxide. The concentrations of this active compound ranged from 0.01 ppm to 100 ppm and were made by serially diluting a 1% by weight aqueous suspension of zinc pyridine-2-thione-N-oxide in 10 milliliter portions of sterile skim milk.
(§2) The milk tubes containing bacteria and zinc pyridine-2-thione-N-oxide were incubated in a shaking water bath at 37° C. for 4 hours; at the end of the incubation period, 0.1 ml of the milk incubate was added to 2 ml of soft agar (0.75% by weight agar and the rest being water) and plated on blood agar plates. These plates were incubated at 37° C. for 18 hours and the microorganisms present on each plate were counted with an NBS Automatic Colony Counter.

E. coli = assay: MIC in sterile, homogenized, skim milk; assay type: cell-based, Escherichia coli; details: 37° C., 4 h
Protocol: as §1, §2

rats = details: cited from earlier work
[4] = tested on: microorganisms which cause bovine mastitis; details: broth
Protocol: (§3) Bacterial isolates for these studies were obtained from the New York State Mastitis Control Program, a division of veterinary clinical services of the New York State College of Veterinary Medicine, Cornell University. Samples were from cows with clinical mastitis or from milk cows that were cultured for a routine herd survey. Mastitis pathogens were identified by the use of standard bacteriologic technique^(1).
(§4) Concentrations inhibiting growth by 50% were determined using broth dilution test procedures^(2). Briefly 0.1 ml of cultures containing approximately 9×10^6 organisms/ml were inoculated into 10 mls of Tryptose-soy broth^(3) containing either 0, 1, 10, 100, or 1000 ppm of zinc pyridine-2-thione-N-oxide. These tubes were incubated at 37° C. for 18 hours and optical densities were read at 550 nanometers. Blanks for each test level consisted of a Tryptose-soy broth tube with the same concentration of test material. Concentrations of test material inhibiting growth by 50% were computed by probit analysis^(4).

Staphylococcus aureus = details: 37° C., 18 h, 5 isolates
Protocol: as §3, §4

Pseudomonas aeruginosa = details: 37° C., 18 h, 2 isolates
Protocol: as §3, §4

Klebsiella pneumoniae = tested on: Klebsiella pneumoniae
Protocol: as §3, §4

Escherichia coli = tested on: Escherichia coli
Protocol: as §3, §4

[5] = Tryptose-soy broth, 37° C., 18 h, 3 isolates
[6] = Tryptose-soy broth, 37° C., 18 h, 5 isolates

[O-]n1ccccc1=S.[O-]n1ccccc1=S.[Zn+2] [zinc pyridine-2-thione-N-oxide, bis[1-hydroxy-2(1H)pyridinethionato]zinc]
disappearance from the milk [1]: relative quick disappearance from the milk | residual amounts in milk expected at lower infused amounts [1]: may be expected to be lower | residual content in milk, summary [1]: very low levels | CMT scores, overall [2]: increased CTM scores | CMT values at 504 hours after the first dose [2]: Normal values | adverse effects on cow's udder [2]: some adverse effects on cow's udder | change in CMT scores [2]: increase | flakes and clots in milk [2]: produced flakes and clots in milk | milk output [2]: depressed milk output | milk production [2]: reduced more dramatically than the 1% infusion | overall effects compared with 1% infusion [2]: in general similar to 1% infusion except with increased severity | systemic effects [2]: no systemic effects were noted | warmth of the udder [2]: felt warm | 50% by Weight Growth Inhibited (concentration inhibiting growth by 50%) (Yeast Group; Tryptose-soy broth): < 1.0 ppm | 100% by Weight Growth Inhibited (MIC) (Yeast Group; Tryptose-soy broth): 3-6 ppm | change in CMT scores [3]: very slight rise | effect on CMT scores [3]: no effect | effect on other physical observations [3]: no effect | firmness of the udder to palpation [3]: increased firmness of the udder to palpation | irritation caused to the udder [3]: low irritation | MIC at 95% Inhibition of Growth (S. aureus): 10 ppm | MIC at 100% Inhibition of Growth (S. aureus): 100 ppm | MIC at 95% Inhibition of Growth (E. coli): 10 ppm | MIC at 100% Inhibition of Growth (E. coli): 100 ppm | LD50 (rats): 200 mg/kg | effectiveness against microorganisms which cause bovine mastitis [4]: effective | 50% by Weight Growth Inhibited (concentration inhibiting growth by 50%) (Staphylococcus aureus; Tryptose-soy broth): < 1.0 ppm | 100% by Weight Growth Inhibited (MIC) (Staphylococcus aureus; Tryptose-soy broth): 5-10 ppm | 50% by Weight Growth Inhibited (concentration inhibiting growth by 50%) (Pseudomonas aeruginosa; Tryptose-soy broth): 9.6 ± 6.4 ppm | 100% by Weight Growth Inhibited (MIC) (Pseudomonas aeruginosa; Tryptose-soy broth): 80-100 ppm | 50% by Weight Growth Inhibited (concentration inhibiting growth by 50%) (Klebsiella pneumoniae; [5]): 2.1 ± 0.3 ppm | 100% by Weight Growth Inhibited (MIC) (Klebsiella pneumoniae; [5]): 10-20 ppm | effectiveness against K. pneumoniae (Klebsiella pneumoniae; broth): especially effective | 50% by Weight Growth Inhibited (concentration inhibiting growth by 50%) (Escherichia coli; [6]): 2.5 ± 0.5 ppm | 100% by Weight Growth Inhibited (MIC) (Escherichia coli; [6]): 13-20 ppm | effectiveness against E. coli (Escherichia coli; broth): especially effective

[Na+].[O-][n+]1ccccc1[S-] [sodium pyridine-2-thione-N-oxide, 2-pyridinethiol-1-oxide, Na salt]
50% by Weight Growth Inhibited (Yeast Group; Table 1A, broth): < 1.0 | effectiveness against microorganisms which cause bovine mastitis [4]: effective | 50% by Weight Growth Inhibited (Staphylococcus aureus; Table 1A, broth): < 1.0 | 50% by Weight Growth Inhibited (Pseudomonas aeruginosa; Table 1A, broth): 38.0 ± 5.2 | 50% by Weight Growth Inhibited (Klebsiella pneumoniae; Table 1A, broth, 37° C., 18 h, 3 isolates): 5.2 ± 0.8 | 50% by Weight Growth Inhibited (Escherichia coli; Table 1A, broth, 37° C., 18 h, 5 isolates): 3.4 ± 0.8
